Laboratory results taken from paper PMC8661032, “Broad-Spectrum Antibacterial Peptide Kills Extracellular and Intracellular Bacteria Without Affecting Epithelialization” (Frontiers in Microbiology, 2021).
In brackets after ≈: the same amount, converted by molar mass. Residues, ends and D or L forms follow the SMILES beside them.

Assays:
[1] = tested on: S. epidermidis MRSE (SO-SEP9-1); conditions: SO-SEP9-1, 24 h
Protocol: (§1) Briefly, bacterial colonies from blood agar plates were suspended and grown in Cation-Adjusted Mueller-Hinton Broth (CAMHB, […] Ca^2+, […] Mg^2+). The bacterial suspension was adjusted to 0.5 McFarland standard (∼1 × 10^8 colony-forming units (CFU)/ml) and serial diluted 1:200 in CAMHB (∼5 × 10^5 CFU/mL). […] The suspension was plated out on blood agar plates to confirm the CFU/ml. Both the microtiter plates and the blood agar plates were incubated at 37°C for 24 h.

E. coli [2] = assay: Growth inhibition assay (OD600 over 24 h); assay type: cell-based, Escherichia coli; set-up: Reduction of viability E. coli (60 μg/ml): key to the marks not given beside the values; conditions: LB medium
Protocol: An overnight culture of Escherichia coli was diluted 1:100 in Luria-Bertani (LB) medium and allowed to grow until an optical density (OD) at 600 nm (OD600) of 0.06–0.1. APIM-peptides were prepared by serial dilution in Milli-Q H2O and kept at 4°C. Fresh LB medium (60 μl) was added to a flat-bottom microtiter plate. The bacterial suspension was diluted 1:100 in LB, and 75 μl of this suspension was added to the wells. Finally, 15 μl of APIM-peptide solution (to final concentrations 60, 120, and 240 μg/ml) or distilled water (positive control) was added to the wells, reaching a total volume of 150 μl per well. Data are presented only for the dose that separated the effect of the different peptides, i.e., 60 μg/ml. A blank sterile medium was used as negative control. The plates were incubated with shaking at 510 rpm at 37°C inside a plate reader (TECAN, Spark®), and OD was read every hour over a period of 24 h.
The MIC for E. coli in LB medium is higher than that in CAMHB; thus, concentrations higher than the MIC given in Table 2 are used in the growth inhibition and mutagenesis assays. […]
E. coli. Growth of E. coli in LB medium over 24 hours (Optical Density (OD) 600 nm) after addition
of APIM-peptide variants 1-5 (60 µg/mL) at time t=0 (see Table 2). Negative (-) control is no
bacteria added, positive (+) control is untreated bacteria.
highest inhibition of growth.
control (black filled line).

HEK293 cells = tested on: HEK293 cells
Protocol: HEK293 cells (6,000 cells/well) were seeded in 96-well microtiter plates. After 4 h, APIM-peptides (12–48 μg/ml) were added, and the cells were incubated without change of media for up to 4 days. Viability was measured using the 3-(4,5-dimethylthiazol-2-yl)-2,5-diphenyltetrazolium bromide (MTT) assay as described ([Gilljam et al., 2009]).
(1 picture or pasted object on this page, not shown here)

E. coli [3] = assay: Rifampicin (RifR) mutagenesis assay after UV-C; assay type: cell-based, Escherichia coli; conditions: 20 μg/ml peptide, UV-C 20 mJ/cm^2, RifR assay, relative to untreated control
Protocol: The rifampicin (Rif^R) mutagenesis assay was performed as described ([Nedal et al., 2020]). Briefly, an overnight culture of E. coli was diluted 1:1,000 and grown until an OD600 of 0.01. APIM-peptides (20 μg/ml) were added to LB media with glass beads (for uniform distribution of APIM-peptides) and incubated for 30 min at 37°C. The pellets were next collected, resuspended in 500 μl PBS, and exposed to UV-C (20 mJ/cm^2) in a six-well plate at 4°C. The unexposed bacteria (-UV) were otherwise handled exactly like the UV-exposed bacteria. Next, the cells were resuspended in LB media and incubated in a rotary shaker at 37°C at 250 rpm for 2 h before being harvested, diluted, and plated on LB with soft agar with and without rifampicin (100 μg/ml). Mutation frequency, Rif^R/10^8, is obtained as follows: (number of colonies on the rifampicin plate (Rif^R)/(number of colonies on LB plates without antibiotics), per milliliter of bacterial suspension. […]
mutagenesis in E. coli more efficiently than the other peptide variants.
Increase in mutation frequencies after treatment with UV-C (20 mJ/cm2) relative to spontaneous mutations frequencies using the RifR assay were determined. This increase is set to 100% for untreated control, and % reduction after addition of peptides 1-5 (20 μg/mL) are shown. Mean ± SD from three independent experiments. * p<0.05, ** p<0.005

A. baumannii = assay: microbe, parasite or virus in culture; conditions: 24 h
Protocol: as §1

E. cloacae = assay: microbe, parasite or virus in culture; conditions: 24 h
Protocol: as §1

E. coli [4] = assay: microbe, parasite or virus in culture; conditions: 24 h
Protocol: as §1

E. faecium = assay: microbe, parasite or virus in culture; conditions: 24 h
Protocol: as §1

K. pneumoniae = assay: microbe, parasite or virus in culture; conditions: 24 h
Protocol: as §1

P. aeruginosa = assay: microbe, parasite or virus in culture; conditions: 24 h
Protocol: as §1

S. aureus = assay: microbe, parasite or virus in culture; conditions: 24 h
Protocol: as §1

HaCaT keratinocytes = assay type: cell-based, human; conditions: betatide 2 μg/ml, 3-mm gap, similar to the uninfected cells
Protocol: Bacterial growth was examined by plating of supernatants.
Epithelialization was calculated from the change in the area of the gaps over time using freehand or rectangular selections in the software Fiji ImageJ 1.52p (National Institutes of Health, United States).
=(AreaofgapinDay 1-Areaofgapineachconsecutiveday)/AreaofgapinDay 1

[5] = tested on: intracellular S. aureus ATCC 29213 in HaCaT cells; assay: Intracellular infection model; assay type: cell-based, Staphylococcus aureus
Protocol: The intracellular infection model used was modified from [Iqbal et al. (2016)] by optimizing the number of multiplicity of infection (MOI: number of bacteria per cell) and time of infection. Briefly, HaCaT cells (6.5 × 10^4/well) were seeded in 24-well plates and incubated overnight in a medium without antibiotics. The next day, approximately 1.25 × 10^5 cells/well were infected with S. aureus at an MOI of 100 in antibiotic-free media. The plates were incubated for 3 h. […] After 16 h of incubation, the extracellular media (100 μl) from each well were plated to confirm the eradication of extracellular S. aureus. Next, the cells were washed 2× with 500 μl PBS before they were lysed with 0.2% Triton-X (500 μl) for 30 min at room temperature. The lysed samples were placed on ice, and 500 μl cold Tryptic Soy Broth was added before they were plated on blood agar plates.

bacteria = assay: MIC comparisons between peptide variants (bacterium not stated); assay type: cell-based; conditions: betatide compared to ATX-101
Cpx mutant E. coli cells = Cpx mutant E. coli cells with constitutive active Cpx response; ref Frimodt-Moller et al., 2021; cited from earlier work
From the text: This, in turn, can reduce the fitness of the bacteria, similar to what has been shown for another peptide targeting the β-clamp called griselimycin.

For `CC[C@H](C)[C@H](NC(=O)CNC(=O)[C@H](CCCCN)NC(=O)[C@@H](NC(=O)[C@H](CC(C)C)NC(=O)[C@H](Cc1c[nH]c2ccccc12)NC(=O)[C@H](CCCNC(=N)N)NC(=O)[C@H](CC(=O)O)NC(=O)[C@H](CCSC)NC(C)=O)C(C)C)C(=O)N[C@@H](CC(C)C)C(=O)N[C@@H](CCC(N)=O)C(=O)N[C@@H](Cc1c[nH]c2ccccc12)C(=O)N[C@@H](CCCNC(=N)N)C(=O)N[C@@H](CCCCN)C(=O)N[C@H](C(=O)N[C@@H](CCCNC(=N)N)C(=O)N[C@@H](CCCNC(=N)N)C(=O)N[C@@H](CCCNC(=N)N)C(=O)N[C@@H](CCCNC(=N)N)C(=O)N[C@@H](CCCNC(=N)N)C(=O)N[C@@H](CCCNC(=N)N)C(=O)N[C@@H](CCCNC(=N)N)C(=O)N[C@@H](CCCNC(=N)N)C(=O)N[C@@H](CCCNC(=N)N)C(=O)N[C@@H](CCCNC(=N)N)C(=O)N[C@@H](CCCNC(=N)N)C(N)=O)[C@@H](C)CC` [betatide] (Ac-MDRWLVKGILQWRKIRRRRRRRRRRR-NH2), the “MIC S. epidermidis MRSE” value [1] was 16 µg/mL (≈ 4.32 µM), the “MIC for MRSE in DMEM” value [1] was 0.25 µg/mL and the “inhibition of growth of E. coli (OD 600 nm)” value (E. coli [2]; 60 µg/mL, over 24 hours, Supplementary Figure S1) was “lowest OD after 8 hours”. For the same compound, the “Reduction of viability E. coli (60 μg/ml)” value (E. coli [2]; 60 μg/ml peptide, OD600 every hour over 24 h, relative to untreated control) was “++++”, the “Reduction of viability HEK293 (24 μg/ml)” value (HEK293 cells) was “+” and the “Reduction of mutation frequency E. coli (20 μg/ml)” value (E. coli [3]) was “++++”. For the same compound, the MIC (A. baumannii) was 8 µg/mL (≈ 2.16 µM), the MIC (A. baumannii; Clinical isolate SO-ABA19-1 (ESBL-CARBA-D), CAMHB, three independent experiments) was 8 µg/mL (≈ 2.16 µM) and the MIC (E. cloacae) was 16 µg/mL (≈ 4.32 µM). The MIC (E. coli [4]) was 16 µg/mL (≈ 4.32 µM), the MIC (E. coli [4]; Clinical isolate SO-ECO19-1 (ESBL-CARB-A(CTX-M-24)/D(OXA-48)), CAMHB, three independent experiments) was 16 µg/mL (≈ 4.32 µM) and the “MIC E. coli” value (E. coli [4]; K-12 MG1655, CLSI broth microdilution, CAMHB, 37°C, visible growth, net peptide concentration) was 16 µg/mL (≈ 4.32 µM). It also gave an MIC (E. faecium) of 8 µg/mL (≈ 2.16 µM), an MIC (K. pneumoniae) of 16 µg/mL (≈ 4.32 µM) and an MIC (P. aeruginosa) of 16 µg/mL (≈ 4.32 µM). The MIC (S. aureus) was 32 µg/mL (≈ 8.65 µM), the MIC (S. aureus; Clinical isolate SO-SAU19-1 (MRSA), CAMHB, three independent experiments) was 16 µg/mL (≈ 4.32 µM) and the MIC (S. aureus; Reference strain ATCC 29213, CAMHB, three independent experiments) was 16 µg/mL (≈ 4.32 µM). For the same compound, the “epithelialization of MRSE-infected HaCaT cells” value (HaCaT keratinocytes) was “completed at day 4”, the “reduction in intracellular bacterial load” value ([5]; betatide 24 μg/ml for 16 h, MOI 100, 3 h infection, extracellular bacteria killed by gentamicin, compared to untreated control) was 4 × and the “intracellular bacterial load (CFU)” value ([5]; concentrations of betatide lower than 24 μg/ml, 16 h) was “did not cause a significant reduction in CFU”. The “reduction of MIC by changes in the linker region” value (bacteria; from Table 2) was roughly 2 ×, the “reduction of MIC by amidation of the C-termini” value (bacteria; unpublished data) was roughly 4 × and the “concentration tolerated by uninfected HaCaT cells” value (HaCaT cells) was “up to 40 μg/ml”. For the same compound, the “increase in MIC” value (Cpx mutant E. coli cells) was 2 ×.
